{"source": "patent US12643887B2", "about": "“Heterocyclic derivatives with cardiomyocyte proliferation activity for treatment of heart diseases” (Tongji University, priority 2019, dated 2026)", "format_in_all_cases": "biochemical", "key": {"[1]": {"target": "T1, human CLK1 (Homo sapiens, UniProt P49759)", "T1 construct": "Recombinant human CLK1 (129-end); GST (N); purchased SignalChem C57-11G; host or cells: Sf9 insect cells", "T1 sequence (P49759 129-484 limits assumed)": "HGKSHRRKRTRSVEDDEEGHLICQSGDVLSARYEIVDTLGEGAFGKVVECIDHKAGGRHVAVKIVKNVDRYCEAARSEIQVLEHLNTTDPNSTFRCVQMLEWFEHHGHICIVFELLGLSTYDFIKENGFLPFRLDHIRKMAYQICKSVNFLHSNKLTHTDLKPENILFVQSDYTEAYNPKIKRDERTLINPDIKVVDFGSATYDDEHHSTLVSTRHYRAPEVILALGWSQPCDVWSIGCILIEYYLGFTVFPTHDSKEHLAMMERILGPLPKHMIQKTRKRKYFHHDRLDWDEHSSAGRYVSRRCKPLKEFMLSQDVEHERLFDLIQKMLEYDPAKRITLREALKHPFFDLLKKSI", "test": "CLK1 enzyme assay (ADP-Glo)", "conditions": "ADP-Glo, ATP 10 μM; read-out: CLK1 IC50", "description": "The ability of compounds to inhibit human CLK1 kinase activities was determined using a commercially available ADP-Glo™ Kinase Assay kit (Promega, Cat #V9102) according to the manufacturer's protocol.\n(§1) Recombinant human CLK1 (129-end) (expressed in Sf9 insect cells with an N-terminal GST tag) was purchased from SignalChem (Cat #C57-11G). Recombinant full length human MBP (expressed in E. Coli cells with an N-terminal GST tag.) was purchased from SignalChem (Cat #M42-54G). This assay, run in a 384-well plate format, is a generic method for measuring kinase activities using an ADP-Glo Kinase Assay Kit. The basic assay procedure involves two steps: (1) Enzymatic step: inhibitors are incubated with the kinase and then ATP (included in the ADP-Glo Kinase Assay Kit) and the MBP protein are added to start the enzymatic reaction; (2) Detection step: after the kinase reaction, first ADP-Glo™ Reagent is added to terminate the kinase reaction and deplete the remaining ATP. Second, the Kinase Detection Reagent is added to simultaneously convert ADP to ATP and allow the newly synthesized ATP to be measured using a luciferase/luciferin reaction. The light generated is measured using a luminometer.\nBriefly, CLK1 (16 nM) in the enzymatic buffer solutions (40 mM Tris, pH 7.5, 20 mM MgCl2, 0.1 mg/ml BSA, 50 μM DTT) were mixed with various concentrations of inhibitors (dissolved in 100% DMSO). These solutions were incubated for 30 minutes at 25° C., and subsequently a mixture of substrate peptide and ATP was added with the final peptide and ATP concentrations at 2 μM and 10 μM, respectively. The final reaction mixture of enzyme-substrate-ATP-compound was incubated for 60 minutes at 25° C.\n(§2) Afterwards ADP-Glo™ Reagent was added and the mixture was incubated at 25° C. for 60 minutes. Then Kinase Detection Reagent was added and the final mixture was incubated at 25° C. for 60 minutes. The luminescence signal of the final solution was measured on an Envision instrument (PerkinElmer). The percent (%) inhibition at each concentration of a compound is calculated relative to the luminescence signal in the Max and Min control wells contained within each assay plate. […] The concentrations and percent inhibition values for a test compound are plotted and the concentration of the compound required to achieve 50% inhibition (IC50) is determined with a four-parameter logistic dose response equation."}, "[2]": {"target": "T2, human DYRK1A (Homo sapiens, UniProt Q13627)", "T2 construct": "Recombinant full-length DYRK1A (expressed in E. Coli cells with an N-terminal GST tag); GST (N); purchased SignalChem D09-10G; host or cells: E. coli", "test": "DYRK1A enzyme assay (ADP-Glo)", "conditions": "ADP-Glo, ATP 60 μM; read-out: DYRK1A IC50", "description": "The ability of compounds to inhibit human DYRK1A kinase activities was determined using a commercially available ADP-Glo™ Kinase Assay kit (Promega, Cat #V9102) according to the manufacturer's protocol.\nas §1, with “full-length DYRK1A” for “human CLK1 (129-end)”, “E. Coli” for “Sf9 insect”, “#D09-10G). The DYRK substrate peptide (DYRKtide, sequence: […])” for “#C57-11G). Recombinant full length human MBP (expressed in E. Coli cells with an N-terminal GST tag.)”, “#D96-58).” for “#M42-54G).”, “DYRKtide” for “MBP protein”\n(§3) Briefly, DYRK1A (3 nM) in the enzymatic buffer solutions (40 mM Tris, pH 7.5, 20 mM MgCl2, 0.1 mg/ml BSA, 50 μM DTT) were mixed with various concentrations of inhibitors (dissolved in 100% DMSO). These solutions were incubated for 30 minutes at 25° C., and subsequently a mixture of substrate peptide and ATP was added with the final peptide and ATP concentrations at 20 μM and 60 μM, respectively. The final reaction mixture of enzyme-substrate-ATP-compound was incubated for 60 minutes at 25° C.\nas §2"}, "[3]": {"target": "T3, human HIPK2 (Homo sapiens, UniProt Q9H2X6)", "T3 construct": "Recombinant human HIPK2 (1-640); GST (N); purchased SignalChem H04-11BG; host or cells: Sf9 insect cells", "T3 sequence (Q9H2X6 1-640)": "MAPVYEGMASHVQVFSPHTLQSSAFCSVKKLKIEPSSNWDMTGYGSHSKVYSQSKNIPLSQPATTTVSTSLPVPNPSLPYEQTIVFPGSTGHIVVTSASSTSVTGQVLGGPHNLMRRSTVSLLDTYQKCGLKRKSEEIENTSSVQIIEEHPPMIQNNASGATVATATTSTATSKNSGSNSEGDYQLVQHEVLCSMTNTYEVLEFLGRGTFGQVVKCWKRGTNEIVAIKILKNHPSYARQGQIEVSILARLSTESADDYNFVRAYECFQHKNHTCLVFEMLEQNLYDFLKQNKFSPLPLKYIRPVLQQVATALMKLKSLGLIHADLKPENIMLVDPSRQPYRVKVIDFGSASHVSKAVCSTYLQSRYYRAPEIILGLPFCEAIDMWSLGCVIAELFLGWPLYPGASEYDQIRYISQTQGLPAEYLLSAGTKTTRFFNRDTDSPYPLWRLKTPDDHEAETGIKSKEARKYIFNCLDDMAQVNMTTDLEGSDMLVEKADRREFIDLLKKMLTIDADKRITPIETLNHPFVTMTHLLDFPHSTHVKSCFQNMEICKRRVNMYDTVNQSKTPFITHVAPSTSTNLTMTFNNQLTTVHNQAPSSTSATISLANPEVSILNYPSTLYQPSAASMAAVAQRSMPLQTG", "test": "HIPK2 enzyme assay (ADP-Glo)", "conditions": "ADP-Glo, ATP 5 μM; read-out: HIPK2 IC50", "description": "The ability of compounds to inhibit human HIPK2 kinase activities was determined using a commercially available ADP-Glo™ Kinase Assay kit (Promega, Cat #V9102) according to the manufacturer's protocol.\nas §1, with “HIPK2 (1-640)” for “CLK1 (129-end)”, “#H04-11BG).” for “#C57-11G).”, “tag)” for “tag.)”\nas §3, with “Briefly, HIPK2 (1” for “Briefly, DYRK1A (3”, “at 0.05 mg/ml” for “at 20 μM”, “and 5” for “and 60”, “for 90” for “for 60”\nAfterwards ADP-Glo™ Reagent was added and the mixture was incubated at 25° C. for 60 minutes. Then Kinase Detection Reagent was added, and the final mixture was incubated at 25° C. for 60 minutes. The luminescence signal of the final solution was measured on an Envision instrument (PerkinElmer). The percent (%) inhibition at each concentration of a compound is calculated relative to the luminescence signal in the Max and Min control wells contained within each assay plate. […] The concentrations and percent inhibition values for a test compound are plotted and the concentration of the compound required to achieve 50% inhibition (IC50) is determined with a four-parameter logistic dose response equation."}}, "data": [{"smiles": "O=C1NC(Nc2ccccc2)=N/C1=C\\c1ccc2scnc2c1", "note": "[Example 14, (Z)-5-(benzo[d]thiazol-5-ylmethylene)-2-(phenylamino)-3,5-dihydro-4H-imidazol-4-one]", "values": [{"measurement": "IC50", "setting": "[1]", "value": "> 10000", "unit": "nM"}, {"measurement": "IC50", "setting": "[2]", "value": "> 10000", "unit": "nM"}, {"measurement": "IC50", "setting": "[3]", "value": "> 10000", "unit": "nM"}]}, {"smiles": "O=C1NC(Nc2ccccc2)=N/C1=C\\c1cncs1", "note": "[Example 15, (Z)-2-(phenylamino)-5-(thiazol-5-ylmethylene)-3,5-dihydro-4H-imidazol-4-one]", "values": [{"measurement": "IC50", "setting": "[1]", "value": "> 10000", "unit": "nM"}, {"measurement": "IC50", "setting": "[2]", "value": "> 10000", "unit": "nM"}, {"measurement": "IC50", "setting": "[3]", "value": "> 10000", "unit": "nM"}]}, {"smiles": "O=C1NC(Nc2ccccc2)=N/C1=C\\c1ccc2nccnc2c1", "note": "[Example 16, (Z)-2-(phenylamino)-5-(quinoxalin-6-ylmethylene)-3,5-dihydro-4H-imidazol-4-one]", "values": [{"measurement": "IC50", "setting": "[1]", "value": "< 100", "unit": "nM"}, {"measurement": "IC50", "setting": "[2]", "value": "< 100", "unit": "nM"}, {"measurement": "IC50", "setting": "[3]", "value": "1000 to 10000", "unit": "nM"}]}, {"smiles": "CN(C1=N/C(=C\\c2ccc3c(c2)OC(F)(F)O3)C(=O)N1)c1ccccc1", "note": "[Example 17, (Z)-5-((2,2-difluorobenzo[d][1,3]dioxol-5-yl)methylene)-2-(methyl(phenyl)amino)-3,5-dihydro-4H-imidazol-4-one]", "values": [{"measurement": "IC50", "setting": "[1]", "value": "> 10000", "unit": "nM"}, {"measurement": "IC50", "setting": "[2]", "value": "> 10000", "unit": "nM"}, {"measurement": "IC50", "setting": "[3]", "value": "> 10000", "unit": "nM"}]}, {"smiles": "CN(C1=N/C(=C\\c2ccc3c(c2)OCO3)C(=O)N1)c1cccnc1", "note": "[Example 18, (Z)-5-(benzo[d][1,3]dioxol-5-ylmethylene)-2-(methyl(pyridin-3-yl)amino)-3,5-dihydro-4H-imidazol-4-one]", "values": [{"measurement": "IC50", "setting": "[1]", "value": "100 to 1000", "unit": "nM"}, {"measurement": "IC50", "setting": "[2]", "value": "100 to 1000", "unit": "nM"}, {"measurement": "IC50", "setting": "[3]", "value": "> 10000", "unit": "nM"}]}, {"smiles": "CN(CC1CC1)C1=N/C(=C\\c2ccc3c(c2)OCCO3)C(=O)N1", "note": "[Example 19, (Z)-2-((cyclopropylmethyl)(methyl)amino)-5-((2,3-dihydrobenzo[b][1,4]dioxin-6-yl)methylene)-3,5-di hydro-4H-imidazol-4-one]", "values": [{"measurement": "IC50", "setting": "[1]", "value": "1000 to 10000", "unit": "nM"}, {"measurement": "IC50", "setting": "[2]", "value": "100 to 1000", "unit": "nM"}, {"measurement": "IC50", "setting": "[3]", "value": "> 10000", "unit": "nM"}]}, {"smiles": "CN(CCN1CCOCC1)C1=N/C(=C\\c2ccc3c(c2)OCO3)C(=O)N1", "note": "[Example 20, (Z)-5-(benzo[d][1,3]dioxol-5-ylmethylene)-2-(methyl(2-morpholinoethyl)amino)-3,5-dihydro-4H-imidazol-4-one]", "values": [{"measurement": "IC50", "setting": "[1]", "value": "100 to 1000", "unit": "nM"}, {"measurement": "IC50", "setting": "[2]", "value": "100 to 1000", "unit": "nM"}, {"measurement": "IC50", "setting": "[3]", "value": "> 10000", "unit": "nM"}]}, {"smiles": "COc1ccccc1N(C)C1=N/C(=C\\c2ccc3c(c2)OCO3)C(=O)N1", "note": "[Example 21, (Z)-5-(benzo[d][1,3]dioxol-5-ylmethylene)-2-((2-methoxyphenyl)(methyl)amino)-3,5-dihydro-4H-imidazol-4-one]", "values": [{"measurement": "IC50", "setting": "[1]", "value": "1000 to 10000", "unit": "nM"}, {"measurement": "IC50", "setting": "[2]", "value": "100 to 1000", "unit": "nM"}, {"measurement": "IC50", "setting": "[3]", "value": "> 10000", "unit": "nM"}]}, {"smiles": "O=C1NC(N(Cc2ccccc2)c2ccccc2)=N/C1=C\\c1ccc2c(c1)OCO2", "note": "[Example 22, (Z)-5-(benzo[d][1,3]dioxol-5-ylmethylene)-2-(benzyl(phenyl)amino)-3,5-dihydro-4H-imidazol-4-one]", "values": [{"measurement": "IC50", "setting": "[1]", "value": "1000 to 10000", "unit": "nM"}, {"measurement": "IC50", "setting": "[2]", "value": "> 10000", "unit": "nM"}, {"measurement": "IC50", "setting": "[3]", "value": "> 10000", "unit": "nM"}]}, {"smiles": "CN(Cc1ccccc1)C1=N/C(=C\\c2ccc3c(c2)OCO3)C(=O)N1", "note": "[Example 23, (Z)-5-(benzo[d][1,3]dioxol-5-ylmethylene)-2-(benzyl(methyl)amino)-3,5-dihydro-4H-imidazol-4-one]", "values": [{"measurement": "IC50", "setting": "[1]", "value": "100 to 1000", "unit": "nM"}, {"measurement": "IC50", "setting": "[2]", "value": "100 to 1000", "unit": "nM"}, {"measurement": "IC50", "setting": "[3]", "value": "> 10000", "unit": "nM"}]}, {"smiles": "CN(C1=N/C(=C\\c2ccc3ncsc3c2)C(=O)N1)c1ccc(Cl)cc1", "note": "[Example 24, (Z)-5-(benzo[d]thiazol-6-ylmethylene)-2-((4-chlorophenyl)(methyl)amino)-3,5-dihydro-4H-imidazol-4-one]", "values": [{"measurement": "IC50", "setting": "[1]", "value": "100 to 1000", "unit": "nM"}, {"measurement": "IC50", "setting": "[2]", "value": "100 to 1000", "unit": "nM"}, {"measurement": "IC50", "setting": "[3]", "value": "100 to 1000", "unit": "nM"}]}, {"smiles": "O=C1NC(Nc2ccccc2)=N/C1=C\\c1ccc2[nH]cnc2c1", "note": "[Example 26, (Z)-5-((1H-benzo[d]imidazol-5-yl)methylene)-2-(phenylamino)-3,5-dihydro-4H-imidazol-4-one]", "values": [{"measurement": "IC50", "setting": "[1]", "value": "< 100", "unit": "nM"}, {"measurement": "IC50", "setting": "[2]", "value": "< 100", "unit": "nM"}, {"measurement": "IC50", "setting": "[3]", "value": "100 to 1000", "unit": "nM"}]}, {"smiles": "O=C(O)CCN(C1=N/C(=C\\c2ccc3c(c2)OCO3)C(=O)N1)c1ccccc1", "note": "[Example 27, (Z)-3-((4-(benzo[d][1,3]dioxol-5-ylmethylene)-5-oxo-4,5-dihydro-1H-imidazol-2-yl)(phenyl)amino)propanoic acid]", "values": [{"measurement": "IC50", "setting": "[1]", "value": "1000 to 10000", "unit": "nM"}, {"measurement": "IC50", "setting": "[2]", "value": "1000 to 10000", "unit": "nM"}, {"measurement": "IC50", "setting": "[3]", "value": "1000 to 10000", "unit": "nM"}]}]}
